Data reported in US20030144346A1, “Methods and compositions for regulation of 5-alpha reductase activity” (priority 1997, published 2003).
Read-outs that look alike come from different tables or passages of the source.

Columns and labels:
[1] = biological target: T1, type 1 human 5α-reductase (HRED1) (Homo sapiens, UniProt P18405); assay: Cell free assay of 5α-reductase, microsomes of rat 1A cells expressing type 1 isoenzyme (HRED1); type: biochemical; set-up: expressed in transfected cells; host or cells: rat 1A cells infected with pMV7 retrovirus; microsomes;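 also: microsomes from rat 1A cells expressing human type 1 5α-reductase, conversion of radiolabeled testosterone to dihydrotestosterone quantified by thin layer chromatography with radioanalytic scanning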
T1 sequence (P18405 1-259): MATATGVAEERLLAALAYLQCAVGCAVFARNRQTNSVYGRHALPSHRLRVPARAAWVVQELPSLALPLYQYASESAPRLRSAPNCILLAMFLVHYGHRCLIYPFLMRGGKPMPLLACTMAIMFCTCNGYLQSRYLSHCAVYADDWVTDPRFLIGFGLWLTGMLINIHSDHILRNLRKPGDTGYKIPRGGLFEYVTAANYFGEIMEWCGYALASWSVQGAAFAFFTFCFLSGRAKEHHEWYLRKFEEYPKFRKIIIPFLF

[2] = biological target: T2, type 2 human 5α-reductase (HRED2) (Homo sapiens, UniProt P31213); assay: Cell free assay of 5α-reductase, microsomes of rat 1A cells expressing type 2 isoenzyme (HRED2); type: biochemical; set-up: expressed in transfected cells; host or cells: rat 1A cells infected with pMV7 retrovirus; microsomes;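 also: labeled testosterone and its product dihydrotestosterone measured in microsomal reaction extracts via thin layer chromatography plus radioanalytic scanning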
T2 sequence (P31213 1-254): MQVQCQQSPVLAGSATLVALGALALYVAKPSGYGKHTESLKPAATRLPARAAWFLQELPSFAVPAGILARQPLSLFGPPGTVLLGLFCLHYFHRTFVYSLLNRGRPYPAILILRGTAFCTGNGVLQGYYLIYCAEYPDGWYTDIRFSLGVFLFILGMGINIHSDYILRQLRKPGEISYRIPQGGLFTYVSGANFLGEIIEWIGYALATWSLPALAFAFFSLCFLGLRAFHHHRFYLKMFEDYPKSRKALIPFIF

[3] = 100 uM, cell free assay, Table 2, read-out: HRED1 % Inhibition @ 100 uM
[4] = cell free assay, Table 2 catechols, read-out: HRED1 IC50
[5] = 100 uM, cell free assay, Table 2, read-out: HRED2 % Inhibition @ 100 uM
[6] = 100 uM, cell free assay, Table 3, read-out: HRED1 % Inhibition @ 100 uM
[7] = cell free assay, Table 3 curcumin and related compounds, read-out: HRED1 IC50
[8] = 100 uM, cell free assay, Table 3, read-out: HRED2 % Inhibition @ 100 uM
[9] = 100 uM, cell free assay, Table 1
[10] = cell free assay, Table 1 flavanoids, read-out: HRED1 IC50
[11] = cell free assay, Table 1 flavanoids, read-out: HRED2 IC50
[12] = 100 μM, cell free assay, Table 4, read-out: HRED1 % Inhibition @ 100 μM
[13] = cell free assay, Table 4 quinones, read-out: HRED1 IC50
[14] = 100 μM, cell free assay, Table 4, read-out: HRED2 % Inhibition @ 100 μM
[15] = cell free assay, Table 4 quinones, read-out: HRED2 IC50
[16] = 100 μM, cell free assay, Table 4
[17] = cell free assay, Table 2 catechols, read-out: HRED2 IC50
[18] = 100 uM, cell free assay, Table 2
[19] = cell-free assay, read-out: IC50, type 1 isoenzyme
[20] = read-out: IC50, type 2 isoenzyme
[21] = 100 uM, cell free assay, Table 3

Structure (SMILES): O=C1C=CC(=C(c2ccc(O)c(O)c2)c2ccccc2S(=O)(=O)O)C=C1O (mixture of isomers) [Pyrocatechol Violet]
- inhibition at 100 µM [1, 3]: 85%
- IC50 [1, 4]: 48 µM
- inhibition at 100 µM [2, 5]: 47%

Structure (SMILES): COc1cc(C=CC=O)ccc1O [4-hydroxy-3-methoxycinnamaldehyde]
- inhibition at 100 µM [1, 6]: 10%
- IC50 [1, 7]: > 100 µM
- inhibition at 100 µM [2, 8]: -60%
- IC50 ([2]; read-out: HRED2 IC50): > 100 µM

Structure (SMILES): O=c1cc(-c2ccccc2)oc2c1ccc1ccccc12 [Alpha-napthoflavone]
- HRED1 % Inhibition @ 100 uM [1, 9]: 6%
- IC50 [1, 10]: > 100 µM
- HRED2 % Inhibition @ 100 uM [2, 9]: (−13) %
- IC50 [2, 11]: > 100 µM

Structure (SMILES): O=C1c2ccc(O)cc2C(=O)c2ccc(O)cc21 [Anthraflavic Acid]
- inhibition at 100 µM [1, 12]: 27%
- IC50 [1, 13]: > 100 µM
- inhibition at 100 µM [2, 14]: 22%
- IC50 [2, 15]: > 100 µM

Structure (SMILES): O=C1c2ccccc2C(=O)c2ccccc21 [Anthraquinone]
- IC50 [1]: > 100 µM
- inhibition at 100 µM ([1]; read-out: HRED1 % Inhibition @ 100 μM): 6%
- IC50 ([1]; read-out: HRED1 IC50, cell free assay, Table 4 quinones): > 100 µM
- IC50 [2]: > 100 µM
- inhibition at 100 µM ([2]; read-out: HRED2 % Inhibition @ 100 μM): 9%
- IC50 ([2]; read-out: HRED2 IC50, cell free assay, Table 4 quinones): > 100 µM

Structure (SMILES): O=C1c2cccc(O)c2C(=O)c2cccc(O)c21 [Anthrarufin]
- HRED1 % Inhibition @ 100 μM [1, 16]: 67%
- inhibition at 100 µM [1, 12]: 67%
- IC50 [1, 13]: 40 µM
- HRED2 % Inhibition @ 100 μM [2, 16]: 13%
- inhibition at 100 µM [2, 14]: 13%
- IC50 [2, 15]: > 100 µM

Structure (SMILES): O=c1cc(-c2ccccc2)oc2ccc3ccccc3c12 [Beta-napthoflavone]
- HRED1 % Inhibition @ 100 uM [1, 9]: 3%
- IC50 [1, 10]: > 100 µM
- HRED2 % Inhibition @ 100 uM [2, 9]: 4%
- IC50 [2, 11]: > 100 µM

Structure (SMILES): O=c1c(Br)cc2c(-c3ccccc3S(=O)(=O)O)c3cc(Br)c(O)c(O)c3oc-2c1O [Bromopyrogallol Red]
- inhibition at 100 µM [1, 3]: 98%
- IC50 [1, 4]: 7 µM
- inhibition at 100 µM [2, 5]: 58%
- IC50 [2, 17]: 84 µM

Structure (SMILES): COc1cc(CNC(=O)CCCC/C=C/C(C)C)ccc1O [Capsaicin]
- IC50 [1]: > 100 µM
- inhibition at 100 µM [1, 6]: 0%
- IC50 [1, 7]: > 100 µM
- IC50 [2]: > 100 µM
- inhibition at 100 µM [2, 8]: 8%
- IC50 ([2]; read-out: HRED2 IC50): > 100 µM

Structure (SMILES): O=c1cc(-c2ccccc2)oc2cc(O)cc(O)c12 [Chrysin]
- IC50 [1, 10]: > 100 µM
- IC50 [2, 11]: > 100 µM

Structure (SMILES): OC1c2ccccc2-c2ccccc2C1O (stereo not drawn) [Cnc]
- HRED1 % Inhibition @ 100 uM [1, 18]: 42%
- IC50 [1, 4]: > 100 µM
- HRED2 % Inhibition @ 100 uM [2, 18]: (−75) %
- IC50 [2, 17]: > 100 µM

Structure (SMILES): COC1=C(OC)C(=O)C(C/C=C(\C)CC/C=C(\C)CC/C=C(\C)CC/C=C(\C)CC/C=C(\C)CC/C=C(\C)CC/C=C(\C)CC/C=C(\C)CC/C=C(\C)CCC=C(C)C)=C(C)C1=O [Coenzyme q]
- HRED1 % Inhibition @ 100 μM [1, 16]: 77%
- IC50 [1, 13]: 12 µM
- inhibitory activity against type 1 isoenzyme, in words ([1]; cell-free assay): potent cell-free inhibitors
- HRED2 % Inhibition @ 100 μM [2, 16]: 81%
- IC50 [2, 15]: 22 µM
- inhibitory activity against type 2 isoenzyme, in words ([2]; cell-free assay): potent cell-free inhibitors

Structure (SMILES): COc1cc(/C=C/CO)ccc1O [Coniferol]
- IC50 [1, 7]: > 100 µM
- IC50 [1, 19]: > 100 µM
- IC50 [2, 20]: > 100 µM

Structure (SMILES): CC(/C=C/C=C(\C)C(=O)O)=C\C=C\C=C(C)\C=C\C=C(/C)C(=O)O [Crocetin]
- IC50 ([1]; cell free assay, Table 6 fatty acids, read-out: HRED1 IC50): 7 µM
- IC50 ([2]; cell free assay, Table 6 fatty acids, read-out: HRED2 IC50): > 100 µM

Structure (SMILES): COc1cc(CCC(=O)CC(=O)CCc2ccc(O)cc2)ccc1O [Demethoxytetrahydrocurcumin]
- HRED1 % Inhibition @ 100 uM [1, 21]: 23%
- IC50 [1, 7]: > 100 µM
- HRED2 % Inhibition @ 100 uM [2, 21]: 42%
- IC50 ([2]; cell free assay, Table 3 curcumin and related compounds, read-out: HRED2 IC50): > 100 µM

Structure (SMILES): O=c1oc2c(O)c(O)cc3c(=O)oc4c(O)c(O)cc1c4c23 [Ellagic Acid]
- inhibition at 100 µM [1, 3]: 7%
- IC50 [1, 4]: > 100 µM
- inhibition at 100 µM [2, 5]: 9%
- IC50 [2, 17]: > 100 µM

Structure (SMILES): C=CCc1ccc(O)c(OC)c1 [Eugenol]
- IC50 [1, 7]: > 100 µM
- IC50 [1, 19]: > 100 µM
- inhibition at 100 µM ([1]; read-out: HRED1 % Inhibition @ 100 uM): 0%
- inhibition at 100 µM ([2]; read-out: HRED2 % Inhibition @ 100 uM): 50%
- IC50 [2, 20]: > 100 µM

Structure (SMILES): O=c1ccc2cc(O)c(O)cc2o1 [Exculetin]
- HRED1 % Inhibition @ 100 uM [1, 18]: 7%
- IC50 [1, 4]: > 100 µM
- HRED2 % Inhibition @ 100 uM [2, 18]: 13%
- IC50 [2, 17]: > 100 µM
